Results: publication PMC3049263 (Bioorganic & medicinal chemistry, 2010)
Like-named read-outs stand apart in the source and are kept apart here.

Legend:
[1] = molecular target: gp120 (Human immunodeficiency virus type 1 group M subtype B, UniProt P35961); experiment: Isothermal titration calorimetry binding to gp120
[2] = test system: wild-type HIV-1YU2 virus; assay type: cell-based; conditions: CD4-expressing Cf2Th-CCR5 target cells
[3] = test system: recombinant HIV-1YU2; assay type: cell-based; conditions: CD4-deficient Cf2Th-CCR5 cells
[4] = test system: S375A mutant HIV-1YU2 envelope glycoproteins; assay type: cell-based; conditions: base of the Phe 43 cavity
[5] = test system: D368A mutant HIV-1YU2 envelope glycoproteins; assay type: cell-based; conditions: vestibule of the Phe 43 cavity

SMILES	gp120 binding affinity (in words) ([1]; ITC)	Inhibition of CD4-gp120 binding / viral infection (in words) [2]	Enhancement of viral infectivity (in words) [3]	further results
CC(C)N1CCC(NC(=O)C(=O)Nc2ccc(Cl)c(F)c2)CC1 [Compound 11]	retention of binding affinity			
CC1(C)CC(NC(=O)C(=O)Nc2ccc(Cl)c(F)c2)CC(C)(C)C1 [Compound 17]		failed to exhibit inhibition		
CC1(C)C2CCC1(C)C(NC(=O)C(=O)Nc1ccc(Cl)c(F)c1)C2 (stereo not shown) [Compound 18]		failed to exhibit inhibition		
CC1(C)CC(NC(=O)C(=O)Nc2ccc(Cl)c(F)c2)CC(C)(C)O1 [Compound 19]	reduced binding			
CC1(C)CC(NC(=O)C(=O)Nc2ccc(Cl)c(F)c2)CC(C)(C)[N+]1(C)[O-] (stereo not shown) [Compound 20]				gp120 binding affinity (in words) [1]: reduced binding
CC(C)N1CCCCC1CCNC(=O)C(=O)Nc1ccc(Cl)c(F)c1 (stereo not shown) [Compound 25]		improved IC50		
O=C(NCC1NCCc2ccccc21)C(=O)Nc1ccc(Cl)c(F)c1 (stereo not shown) [Compound 39]			decreased enhancement of viral infectivity	
CCN1CCCC1CNC(=O)C(=O)Nc1ccc(Cl)cc1 (stereo not shown) [Compound 42]		inhibited CD4-gp120 binding		
CCN1CCCC1CNC(=O)C(=O)Nc1ccc(Cl)c(F)c1 (stereo not shown) [Compound 43]	binding affinity comparable to 41		without the accompanying enhancement of viral infectivity	
O=C(Nc1ccc(Cl)c(F)c1)C(=O)NC1CCNC2(CCC2)C1 (stereo not shown) [Compound 49]	sub-micromolar binding affinity	maintained inhibition	activation of viral infectivity similar to 1	Effect of S375A mutation on inhibition of CD4-gp120 binding (in words) [4]: increases the ability of these analogues to inhibit CD4-gp120 binding; Effect of D368A mutation on analogue binding (in words) [5]: negative effect
C[C@@H]1CCC[C@H](C)N1CCNC(=O)C(=O)Nc1ccc(Cl)c(F)c1 [Compound 50]			ineffective at enhancing viral infectivity	Effect of S375A mutation on inhibition of CD4-gp120 binding (in words) [4]: increases the ability of these analogues to inhibit CD4-gp120 binding; Effect of D368A mutation on analogue binding (in words) [5]: negative effect
O=C(NCC1CCCN(CCO)C1)C(=O)Nc1ccc(Cl)c(F)c1 (stereo not shown) [Compound 51]			ineffective at enhancing viral infectivity	
